Consider 24 molecules from patent US10543212B2, “Substituted amines for treating cardiac diseases” (Cardurion Pharmaceuticals, LLC, priority 2017, dated 2020).

Bounds are passed on as bounds.

The target of the test is T1, Full-length, GST-tagged, human CaMKIIδ (Homo sapiens, UniProt Q13557).
T1 construct: Full-Length, Glutathione-S-Transferase(GST)-Tagged, Human CaMKIIδ was purchased from Carna Biosciences; purchased Carna Biosciences 02-111
In words: CaMKIIδ binding assay (TR-FRET with BODIPY-labeled probe ligand). The essentials:
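Compounds were tested as 4-fold, eight-point series for 1 hr at room temperature, and IC50 was obtained by logistic fitting against a 3 μM parent-compound control. Signal came from displacement of a 300 nM BODIPY ligand from 0.5 nM GST-CaMKIIδ, detected via Tb-anti-GST in calmodulin/Ca2+ (pH 7.6).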
Background: Time-resolved FRET reads energy transfer from a long-lived donor to a nearby acceptor.

Setting [1] is: Table 2, CaMKIIδ binding assay, activity given as class A/B/C.
[2] abbreviates: Table 2, activity class for CaMKIIδ.
The mark [3] stands for this setting: CaMKIIδ binding assay, results of Table 2.
Where [4] appears, read: CaMKIIδ binding assay, activity class per Table 2.

T1 sequence (Q13557 1-478 isoform Q13557-12): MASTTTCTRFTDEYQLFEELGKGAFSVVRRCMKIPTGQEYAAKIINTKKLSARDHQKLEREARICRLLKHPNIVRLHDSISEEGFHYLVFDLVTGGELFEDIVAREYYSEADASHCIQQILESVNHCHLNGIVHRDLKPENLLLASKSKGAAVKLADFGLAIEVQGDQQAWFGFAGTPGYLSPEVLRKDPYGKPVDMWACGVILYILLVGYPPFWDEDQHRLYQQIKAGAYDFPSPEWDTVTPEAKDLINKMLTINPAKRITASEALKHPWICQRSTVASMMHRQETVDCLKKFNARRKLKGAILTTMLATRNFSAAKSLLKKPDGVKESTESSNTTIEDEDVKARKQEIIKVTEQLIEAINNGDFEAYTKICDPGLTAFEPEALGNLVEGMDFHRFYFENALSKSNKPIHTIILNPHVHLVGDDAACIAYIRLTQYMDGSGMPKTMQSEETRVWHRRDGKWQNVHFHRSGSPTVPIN

Take `C[C@@H](Cn1cnnn1)Oc1cc(-c2cnc(Nc3cn([C@@H](C)C(=O)N4CCOCC4)nc3C(F)(F)F)nc2)ccc1Cl` [Example 761, (S)-2-(4-((5-(3-(((S)-1-(1H-tetrazol-1-yl)propan-2-yl)oxy)-4-chlorophenyl)pyrimidin-2-yl)amino)-3-(trifluoromethyl)-1H-pyrazol-1-yl)-1-morpholinopropan-1-one]: under setting [1], the IC50 – broadly, the concentration that inhibits the measured activity by half – was 10 to 100 nM.

Take `C[C@@H](Cn1cnnn1)Oc1cc(-c2cnc(Nc3cn(Cc4nc5ccccc5[nH]4)nc3C(F)(F)F)nc2)ccc1Cl` [Example 658, (S)-N-(1-((1H-benzo[d]imidazol-2-yl)methyl)-3-(trifluoromethyl)-1H-pyrazol-4-yl)-5-(3-((1-(1H-tetrazol-1-yl)propan-2-yl)oxy)-4-chlorophenyl)pyrimidin-2-amine]: the 50% inhibitory concentration (IC50) under setting [2] lay within 10 to 100 nM.

In turn, `C[C@@H](Cn1cnnn1)Oc1cc(-c2cnc(Nc3cc(C(C)(C)C)nn3C)nc2)ccc1Cl` [Example 740, (S)-5-(3-((1-(1H-tetrazol-1-yl)propan-2-yl)oxy)-4-chlorophenyl)-N-(3-(tert-butyl)-1-methyl-1H-pyrazol-5-yl)pyrimidin-2-amine] yielded an IC50 under setting [1] of at least 100 nM.

`C[C@@H](Cn1cnnn1)Oc1cc(-c2cnc(Nc3cn(CC4CN(Cc5ccccc5)CCO4)nc3C(F)(F)F)nc2)ccc1Cl` (stereo partly drawn) [Example 641, 5-(3-(((S)-1-(1H-tetrazol-1-yl)propan-2-yl)oxy)-4-chlorophenyl)-N-(1-((4-benzylmorpholin-2-yl)methyl)-3-(trifluoromethyl)-1H-pyrazol-4-yl)pyrimidin-2-amine] displayed a half-maximal inhibitory concentration (IC50) under setting [2] of at least 100 nM.

With `C[C@@H](Cn1cnnn1)Oc1cc(-c2cnc(Nc3ccc4c(c3)CCN4)nc2)ccc1Cl` [Example 451, (S)-N-(5-(3-((1-(1H-tetrazol-1-yl)propan-2-yl)oxy)-4-chlorophenyl)pyrimidin-2-yl)indolin-5-amine], the IC50 under setting [3] is 10 to 100 nM.

Turning to `COc1cc2c(cc1Nc1ncc(-c3ccc(Cl)c(O[C@@H](C)Cn4cnnn4)c3)cn1)CN(C(=O)CN(C)C)CC2` [Example 464, (S)-1-(7-((5-(3-((1-(1H-tetrazol-1-yl)propan-2-yl)oxy)-4-chlorophenyl)pyrimidin-2-yl)amino)-6-methoxy-3,4-dihydroisoquinolin-2(1H)-yl)-2-(dimethylamino)ethan-1-one], the concentration for half-maximal inhibition (IC50) under setting [3] is below 10 nM.

On to `C[C@@H](Cn1cnnn1)Oc1cc(-c2cnc(Nc3cn(CC4(O)CCN(C5CCOCC5)CC4)nc3C(F)(F)F)nc2)ccc1Cl` [Example 905, (S)-4-((4-((5-(3-((1-(1H-tetrazol-1-yl)propan-2-yl)oxy)-4-chlorophenyl)pyrimidin-2-yl)amino)-3-(trifluoromethyl)-1H-pyrazol-1-yl)methyl)-1-(tetrahydro-2H-pyran-4-yl)piperidin-4-ol], for which the IC50 under setting [4] is below 10 nM.

Turning to `COc1ccc(Cn2cc(Nc3ncc(-c4ccc(Cl)c(O[C@@H](C)Cn5cnnn5)c4)cn3)c(OCC(F)(F)F)n2)cn1` [Example 926, (S)-5-(3-((1-(1H-tetrazol-1-yl)propan-2-yl)oxy)-4-chlorophenyl)-N-(1-((6-methoxypyridin-3-yl)methyl)-3-(2,2,2-trifluoroethoxy)-1H-pyrazol-4-yl)pyrimidin-2-amine], the IC50 under setting [4] was below 10 nM.

Molecule `CCn1cc(Nc2ncc(-c3ccc(Cl)c(O[C@@H](C)Cn4cnnn4)c3)cn2)c(C(F)(F)F)n1` [Example 674, (S)-5-(3-((1-(1H-tetrazol-1-yl)propan-2-yl)oxy)-4-chlorophenyl)-N-(1-ethyl-3-(trifluoromethyl)-1H-pyrazol-4-yl)pyrimidin-2-amine] gave an IC50 under setting [2] of 10 to 100 nM.

Consider `CC(=O)NC(C)(C)Cn1cc(Nc2ncc(-c3ccc(Cl)c(O[C@@H](C)Cn4cnnn4)c3)cn2)c(C(F)(F)F)n1` [Example 862, (S)-N-(1-(4-((5-(3-((1-(1H-tetrazol-1-yl)propan-2-yl)oxy)-4-chlorophenyl)pyrimidin-2-yl)amino)-3-(trifluoromethyl)-1H-pyrazol-1-yl)-2-methylpropan-2-yl)acetamide], for which the IC50 under setting [1] was in the range of 10 to 100 nM.

For the molecule `COCC(=O)N1CCc2cc(Nc3ncc(-c4ccc(Cl)c(O[C@@H](C)Cn5cnnn5)c4)cn3)c(OC)cc2C1` [Example 469, (S)-1-(6-((5-(3-((1-(1H-tetrazol-1-yl)propan-2-yl)oxy)-4-chlorophenyl)pyrimidin-2-yl)amino)-7-methoxy-3,4-dihydroisoquinolin-2(1H)-yl)-2-methoxyethan-1-one], under setting [3], the IC50 was 10 to 100 nM.

Take `Cc1noc(C)c1Cn1cc(Nc2ncc(-c3ccc(Cl)c(O[C@@H](C)Cn4cnnn4)c3)cn2)c(C(F)(F)F)n1` [Example 734, (S)-5-(3-((1-(1H-tetrazol-1-yl)propan-2-yl)oxy)-4-chlorophenyl)-N-(1-((3,5-dimethylisoxazol-4-yl)methyl)-3-(trifluoromethyl)-1H-pyrazol-4-yl)pyrimidin-2-amine]: the IC50 under setting [1] fell in the range of 10 to 100 nM.

For the molecule `CCc1nn(C2CCN(C3CCOCC3)CC2)cc1Nc1ncc(-c2ccc(Cl)c(O[C@@H](C)Cn3cnnn3)c2)cn1` [Example 632, (S)-5-(3-((1-(1H-tetrazol-1-yl)propan-2-yl)oxy)-4-chlorophenyl)-N-(3-ethyl-1-(1-(tetrahydro-2H-pyran-4-yl)piperidin-4-yl)-1H-pyrazol-4-yl)pyrimidin-2-amine], under setting [2], the IC50 was below 10 nM.

As to `C[C@@H](Cn1cnnn1)Oc1cc(-c2cnc(Nc3cn(C4CN(C5COC5)C4)nc3C(F)(F)F)nc2)ccc1Cl` [Example 699, (S)-5-(3-((1-(1H-tetrazol-1-yl)propan-2-yl)oxy)-4-chlorophenyl)-N-(1-(1-(oxetan-3-yl)azetidin-3-yl)-3-(trifluoromethyl)-1H-pyrazol-4-yl)pyrimidin-2-amine], the IC50 under setting [2] is 10 to 100 nM.

For `C[C@@H](Cn1cnnn1)Oc1cc(-c2cnc(Nc3cn(C4CCCCC4O)nc3C(F)(F)F)nc2)ccc1Cl` (stereo partly drawn) [Example 733, 2-(4-((5-(3-(((S)-1-(1H-tetrazol-1-yl)propan-2-yl)oxy)-4-chlorophenyl)pyrimidin-2-yl)amino)-3-(trifluoromethyl)-1H-pyrazol-1-yl)cyclohexan-1-ol], under setting [1], the IC50 was below 10 nM.

In the case of `C[C@@H](Cn1cnnn1)Oc1cc(-c2cnc(Nc3cn([C@H]4CC[C@@H](N5CCOCC5)CC4)nc3OCC(F)(F)F)nc2)ccc1F` [Example 814, 5-(3-(((S)-1-(1H-tetrazol-1-yl)propan-2-yl)oxy)-4-fluorophenyl)-N-(1-(cis-4-morpholinocyclohexyl)-3-(2,2,2-trifluoroethoxy)-1H-pyrazol-4-yl)pyrimidin-2-amine], the IC50 under setting [1] is 10 to 100 nM.

Under setting [2], `C[C@@H](Cn1cnnn1)Oc1cc(-c2cnc(Nc3cn(CCOCCO)nc3C(F)(F)F)nc2)ccc1Cl` [Example 620, (S)-2-(2-(4-((5-(3-((1-(1H-tetrazol-1-yl)propan-2-yl)oxy)-4-chlorophenyl)pyrimidin-2-yl)amino)-3-(trifluoromethyl)-1H-pyrazol-1-yl)ethoxy)ethan-1-ol] showed an IC50 of 10 to 100 nM.

For the molecule `C[C@@H](Cn1cnnn1)Oc1cc(-c2cnc(Nc3cn(C4CCN(CC(F)(F)F)CC4)nc3C(F)(F)F)nc2)ccc1Cl` [Example 486, (S)-5-(3-((1-(1H-tetrazol-1-yl)propan-2-yl)oxy)-4-chlorophenyl)-N-(1-(1-(2,2,2-trifluoroethyl)piperidin-4-yl)-3-(trifluoromethyl)-1H-pyrazol-4-yl)pyrimidin-2-amine], under setting [3], the IC50 was 10 to 100 nM.

For the molecule `C[C@@H](Cn1cnnn1)Oc1cc(-c2cnc(Nc3cc(C4CCNCC4)c(F)cc3F)nc2)ccc1Cl` [Example 575, (S)-5-(3-((1-(1H-tetrazol-1-yl)propan-2-yl)oxy)-4-chlorophenyl)-N-(2,4-difluoro-5-(piperidin-4-yl)phenyl)pyrimidin-2-amine], the half-maximal inhibitory concentration (IC50) under setting [3] was below 10 nM.

`C[C@@H](Cn1cnnn1)Oc1cc(-c2cnc(Nc3cn(C4CC5(C4)CN(C4CCCOCC4)C5)nc3OCC(F)(F)F)nc2)ccc1Cl` (stereo partly drawn) [Example 981, 5-(3-(((S)-1-(1H-tetrazol-1-yl)propan-2-yl)oxy)-4-chlorophenyl)-N-(1-(2-(oxepan-4-yl)-2-azaspiro[3.3]heptan-6-yl)-3-(2,2,2-trifluoroethoxy)-1H-pyrazol-4-yl)pyrimidin-2-amine] had a 50% inhibitory concentration (IC50) under setting [4] below 10 nM.

As for `COCCN1CC2(CC(n3cc(Nc4ncc(-c5ccc(Cl)c(O[C@@H](C)Cn6cnnn6)c5)cn4)c(OCC(F)(F)F)n3)C2)C1` [Example 979, (S)-5-(3-((1-(1H-tetrazol-1-yl)propan-2-yl)oxy)-4-chlorophenyl)-N-(1-(2-(2-methoxyethyl)-2-azaspiro[3.3]heptan-6-yl)-3-(2,2,2-trifluoroethoxy)-1H-pyrazol-4-yl)pyrimidin-2-amine], under setting [4], the IC50 is below 10 nM.

`COc1cnc(N2CCC(C)(O)CC2)cc1Nc1ncc(-c2ccc(Cl)c(O[C@@H](C)Cn3cnnn3)c2)cn1` [Example 481, (S)-1-(4-((5-(3-((1-(1H-tetrazol-1-yl)propan-2-yl)oxy)-4-chlorophenyl)pyrimidin-2-yl)amino)-5-methoxypyridin-2-yl)-4-methylpiperidin-4-ol] displayed an IC50 under setting [3] of 10 to 100 nM.

The molecule `C[C@@H](Cn1cnnn1)Oc1cc(-c2cnc(Nc3cn(C4CCN(C(=O)OC(C)(C)C)CC4)nc3C(F)(F)F)nc2)ccc1Cl` [Example 482, tert-butyl (S)-4-(4-((5-(3-((1-(1H-tetrazol-1-yl)propan-2-yl)oxy)-4-chlorophenyl)pyrimidin-2-yl)amino)-3-(trifluoromethyl)-1H-pyrazol-1-yl)piperidine-1-carboxylate] returned an IC50 under setting [3] of 10 to 100 nM.

The molecule `CNC(=O)C1CN(c2ccc(OC)c(Nc3ncc(-c4ccc(Cl)c(O[C@@H](C)Cn5cnnn5)c4)cn3)c2)C1` [Example 679, (S)-1-(3-((5-(3-((1-(1H-tetrazol-1-yl)propan-2-yl)oxy)-4-chlorophenyl)pyrimidin-2-yl)amino)-4-methoxyphenyl)-N-methylazetidine-3-carboxamide] displayed a 50% inhibitory concentration (IC50) under setting [2] below 10 nM.
